Data from ChEMBL document CHEMBL1152878, “N-Hydroxy-1,2-disubstituted-1H-benzimidazol-5-yl acrylamides as novel histone deacetylase inhibitors: design, synthesis, SAR studies, and in vivo antitumor activity” (Bioorg Med Chem Lett, 2009).

Key:
[1] = Solubility at pH 6.5; format: physicochemical; conditions: buffer
[2] = Lipophilicity, log D at pH 7.3; format: physicochemical; conditions: buffer
[3] = test system: HCT-116; experiment: Antitumor activity against human HCT116 cells xenografted in athymic mouse assessed as tumor growth inhibition at 200 mg/kg, po qd for 21 days measured on day 21; format: functional; conditions: HCT-116, 504 h, read-out: TGI
[4] = molecular target: T1, Histone deacetylase 11 (Homo sapiens, UniProt Q96DB2); experiment: Inhibition of recombinant HDAC11 by fluorimetric assay
T1 sequence (Q96DB2 whole entry): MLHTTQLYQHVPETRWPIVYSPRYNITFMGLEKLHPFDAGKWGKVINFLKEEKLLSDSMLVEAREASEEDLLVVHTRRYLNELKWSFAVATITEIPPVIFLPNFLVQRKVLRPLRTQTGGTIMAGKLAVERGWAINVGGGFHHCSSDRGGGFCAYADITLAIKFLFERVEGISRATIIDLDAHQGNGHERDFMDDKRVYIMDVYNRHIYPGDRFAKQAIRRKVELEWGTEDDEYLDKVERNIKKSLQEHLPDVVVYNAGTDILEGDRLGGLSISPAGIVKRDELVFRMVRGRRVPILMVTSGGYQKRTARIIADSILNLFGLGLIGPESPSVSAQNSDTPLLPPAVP

[5] = test system: COLO 205; experiment: Antiproliferative activity against human COLO205 cells after 96 hrs by celltiter assay; format: functional, cell-based; conditions: COLO 205, 96 h
[6] = molecular target: Histone deacetylase 5 (Homo sapiens, UniProt Q9UQL6); experiment: Inhibition of recombinant HDAC5 by fluorimetric assay
Sequence of Histone deacetylase 5 (Q9UQL6 whole entry): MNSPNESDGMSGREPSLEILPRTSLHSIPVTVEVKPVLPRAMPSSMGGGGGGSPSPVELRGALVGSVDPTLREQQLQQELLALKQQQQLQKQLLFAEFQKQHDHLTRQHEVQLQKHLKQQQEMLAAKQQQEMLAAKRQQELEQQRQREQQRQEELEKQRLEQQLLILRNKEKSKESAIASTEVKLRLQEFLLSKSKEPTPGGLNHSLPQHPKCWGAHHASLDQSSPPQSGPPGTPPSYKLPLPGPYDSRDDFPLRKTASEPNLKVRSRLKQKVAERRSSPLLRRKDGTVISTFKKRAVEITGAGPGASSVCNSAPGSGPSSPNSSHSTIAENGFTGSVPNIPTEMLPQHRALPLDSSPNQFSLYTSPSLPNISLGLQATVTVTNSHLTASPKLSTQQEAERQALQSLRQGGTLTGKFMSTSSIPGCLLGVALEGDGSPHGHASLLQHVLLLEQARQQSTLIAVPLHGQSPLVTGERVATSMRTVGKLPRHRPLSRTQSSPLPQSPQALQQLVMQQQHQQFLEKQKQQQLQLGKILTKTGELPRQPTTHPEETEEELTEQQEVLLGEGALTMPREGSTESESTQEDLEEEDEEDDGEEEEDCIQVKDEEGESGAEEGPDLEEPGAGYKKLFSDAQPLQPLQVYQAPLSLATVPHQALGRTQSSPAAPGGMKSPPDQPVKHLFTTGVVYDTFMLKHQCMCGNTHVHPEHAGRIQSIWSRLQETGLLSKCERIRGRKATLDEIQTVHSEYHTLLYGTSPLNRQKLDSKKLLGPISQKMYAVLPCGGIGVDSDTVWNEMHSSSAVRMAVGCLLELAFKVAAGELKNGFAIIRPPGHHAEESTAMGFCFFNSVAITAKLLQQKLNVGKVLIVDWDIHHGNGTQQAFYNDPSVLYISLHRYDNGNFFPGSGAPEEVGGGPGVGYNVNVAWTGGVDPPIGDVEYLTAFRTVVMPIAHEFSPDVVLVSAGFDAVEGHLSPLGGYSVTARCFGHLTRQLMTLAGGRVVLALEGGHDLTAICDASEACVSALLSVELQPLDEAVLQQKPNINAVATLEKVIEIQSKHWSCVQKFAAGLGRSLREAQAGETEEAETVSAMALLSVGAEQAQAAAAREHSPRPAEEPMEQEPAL

[7] = molecular target: Histone deacetylase 3 (Homo sapiens, UniProt O15379); experiment: Inhibition of recombinant HDAC3 by fluorimetric assay
Sequence of Histone deacetylase 3 (O15379 whole entry): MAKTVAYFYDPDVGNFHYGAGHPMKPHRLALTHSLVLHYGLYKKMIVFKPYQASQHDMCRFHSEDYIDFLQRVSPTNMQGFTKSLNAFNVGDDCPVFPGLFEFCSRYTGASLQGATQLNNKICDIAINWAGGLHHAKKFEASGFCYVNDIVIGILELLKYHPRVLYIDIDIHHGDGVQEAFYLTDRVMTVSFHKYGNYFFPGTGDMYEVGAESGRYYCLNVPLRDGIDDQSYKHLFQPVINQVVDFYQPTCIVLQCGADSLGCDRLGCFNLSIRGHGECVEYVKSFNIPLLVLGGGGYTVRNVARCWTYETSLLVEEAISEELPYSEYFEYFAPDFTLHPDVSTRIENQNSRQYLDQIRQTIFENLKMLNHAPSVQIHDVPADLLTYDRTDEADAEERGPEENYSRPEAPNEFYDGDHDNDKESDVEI

[8] = Toxicity in ip dosed athymic mouse assessed as maximum tolerated dose; format: organism-based; conditions: in vivo
[9] = Cmax in mouse at 50 mg/kg, po; format: ADME, organism-based; parameters: dose 50 mg/kg, route oral; conditions: in vivo
[10] = Oral bioavailability in mouse at 50 mg/kg; format: ADME, organism-based; conditions: in vivo
[11] = molecular target: T2, Protein deacetylase HDAC6 (Homo sapiens, UniProt Q9UBN7); experiment: Inhibition of recombinant HDAC6 by fluorimetric assay
T2 sequence (Q9UBN7 whole entry): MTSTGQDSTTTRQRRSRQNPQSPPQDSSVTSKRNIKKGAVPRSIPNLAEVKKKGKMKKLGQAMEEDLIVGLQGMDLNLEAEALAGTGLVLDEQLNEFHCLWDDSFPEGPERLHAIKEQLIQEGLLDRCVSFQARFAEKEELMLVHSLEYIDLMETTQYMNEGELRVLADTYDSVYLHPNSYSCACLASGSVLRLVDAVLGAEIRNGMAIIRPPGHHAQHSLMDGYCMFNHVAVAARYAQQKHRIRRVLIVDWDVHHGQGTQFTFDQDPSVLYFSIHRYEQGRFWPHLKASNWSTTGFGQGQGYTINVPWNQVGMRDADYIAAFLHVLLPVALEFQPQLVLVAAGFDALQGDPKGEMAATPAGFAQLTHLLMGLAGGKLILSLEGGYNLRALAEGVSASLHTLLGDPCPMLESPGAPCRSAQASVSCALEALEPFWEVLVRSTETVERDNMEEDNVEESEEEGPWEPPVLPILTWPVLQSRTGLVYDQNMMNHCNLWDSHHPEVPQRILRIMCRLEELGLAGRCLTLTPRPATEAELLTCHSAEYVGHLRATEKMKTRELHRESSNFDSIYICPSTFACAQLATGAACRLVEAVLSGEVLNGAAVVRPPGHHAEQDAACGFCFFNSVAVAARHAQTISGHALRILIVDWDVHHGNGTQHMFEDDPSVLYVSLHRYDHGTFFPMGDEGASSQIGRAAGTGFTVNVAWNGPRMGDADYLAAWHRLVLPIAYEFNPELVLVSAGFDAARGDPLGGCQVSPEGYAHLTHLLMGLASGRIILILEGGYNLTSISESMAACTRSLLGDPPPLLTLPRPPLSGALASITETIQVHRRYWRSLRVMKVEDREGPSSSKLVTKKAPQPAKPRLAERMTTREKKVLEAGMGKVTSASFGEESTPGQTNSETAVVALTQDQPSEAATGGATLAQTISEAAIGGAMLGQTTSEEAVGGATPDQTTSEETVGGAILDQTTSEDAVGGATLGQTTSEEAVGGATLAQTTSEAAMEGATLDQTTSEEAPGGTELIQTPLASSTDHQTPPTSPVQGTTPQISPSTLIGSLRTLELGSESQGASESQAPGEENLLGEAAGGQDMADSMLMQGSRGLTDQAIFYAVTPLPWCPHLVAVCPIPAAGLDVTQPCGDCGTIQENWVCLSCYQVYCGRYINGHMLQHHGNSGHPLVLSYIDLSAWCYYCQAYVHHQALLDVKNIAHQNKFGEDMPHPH

[12] = test system: Mus musculus; experiment: Toxicity in athymic mouse xenografted with human HCT116 cells assessed as maximum body weight loss at 70 mg/kg, ip qd for 21 days measured on day 15; format: organism-based, HCT-116; parameters: dose 70 mg/kg, route intraperitoneal; conditions: in vivo, 504 h
[13] = molecular target: Histone deacetylase 4 (Homo sapiens, UniProt P56524); experiment: Inhibition of recombinant HDAC4 by fluorimetric assay
Sequence of Histone deacetylase 4 (P56524 whole entry): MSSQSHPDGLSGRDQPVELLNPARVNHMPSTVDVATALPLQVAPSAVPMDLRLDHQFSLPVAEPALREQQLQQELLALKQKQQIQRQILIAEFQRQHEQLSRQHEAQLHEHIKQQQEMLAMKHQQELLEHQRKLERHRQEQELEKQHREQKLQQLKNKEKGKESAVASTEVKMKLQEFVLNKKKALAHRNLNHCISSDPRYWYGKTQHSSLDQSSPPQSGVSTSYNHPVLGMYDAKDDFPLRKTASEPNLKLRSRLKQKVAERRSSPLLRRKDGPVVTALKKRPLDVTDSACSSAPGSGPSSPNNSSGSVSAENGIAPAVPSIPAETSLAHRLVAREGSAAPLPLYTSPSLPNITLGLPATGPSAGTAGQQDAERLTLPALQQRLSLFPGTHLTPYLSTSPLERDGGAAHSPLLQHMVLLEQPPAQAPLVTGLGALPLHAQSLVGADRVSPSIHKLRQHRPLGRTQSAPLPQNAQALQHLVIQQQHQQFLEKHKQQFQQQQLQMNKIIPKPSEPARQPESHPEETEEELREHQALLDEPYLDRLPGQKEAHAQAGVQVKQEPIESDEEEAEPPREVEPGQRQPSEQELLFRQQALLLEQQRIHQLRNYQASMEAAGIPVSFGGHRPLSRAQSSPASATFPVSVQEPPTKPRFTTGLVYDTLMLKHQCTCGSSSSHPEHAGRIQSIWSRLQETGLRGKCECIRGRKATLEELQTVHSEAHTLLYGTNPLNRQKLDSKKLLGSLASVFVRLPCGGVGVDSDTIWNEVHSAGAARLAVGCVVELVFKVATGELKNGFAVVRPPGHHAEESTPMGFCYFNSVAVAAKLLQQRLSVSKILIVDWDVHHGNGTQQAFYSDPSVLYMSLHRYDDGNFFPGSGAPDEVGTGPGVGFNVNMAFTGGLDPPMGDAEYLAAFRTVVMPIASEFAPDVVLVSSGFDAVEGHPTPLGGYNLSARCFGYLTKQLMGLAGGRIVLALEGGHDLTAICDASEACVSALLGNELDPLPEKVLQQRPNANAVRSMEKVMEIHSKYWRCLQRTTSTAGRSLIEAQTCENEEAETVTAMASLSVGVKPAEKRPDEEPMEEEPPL

[14] = molecular target: Histone deacetylase 9 (Homo sapiens, UniProt Q9UKV0); experiment: Inhibition of recombinant HDAC9 by fluorimetric assay
Sequence of Histone deacetylase 9 (Q9UKV0 whole entry): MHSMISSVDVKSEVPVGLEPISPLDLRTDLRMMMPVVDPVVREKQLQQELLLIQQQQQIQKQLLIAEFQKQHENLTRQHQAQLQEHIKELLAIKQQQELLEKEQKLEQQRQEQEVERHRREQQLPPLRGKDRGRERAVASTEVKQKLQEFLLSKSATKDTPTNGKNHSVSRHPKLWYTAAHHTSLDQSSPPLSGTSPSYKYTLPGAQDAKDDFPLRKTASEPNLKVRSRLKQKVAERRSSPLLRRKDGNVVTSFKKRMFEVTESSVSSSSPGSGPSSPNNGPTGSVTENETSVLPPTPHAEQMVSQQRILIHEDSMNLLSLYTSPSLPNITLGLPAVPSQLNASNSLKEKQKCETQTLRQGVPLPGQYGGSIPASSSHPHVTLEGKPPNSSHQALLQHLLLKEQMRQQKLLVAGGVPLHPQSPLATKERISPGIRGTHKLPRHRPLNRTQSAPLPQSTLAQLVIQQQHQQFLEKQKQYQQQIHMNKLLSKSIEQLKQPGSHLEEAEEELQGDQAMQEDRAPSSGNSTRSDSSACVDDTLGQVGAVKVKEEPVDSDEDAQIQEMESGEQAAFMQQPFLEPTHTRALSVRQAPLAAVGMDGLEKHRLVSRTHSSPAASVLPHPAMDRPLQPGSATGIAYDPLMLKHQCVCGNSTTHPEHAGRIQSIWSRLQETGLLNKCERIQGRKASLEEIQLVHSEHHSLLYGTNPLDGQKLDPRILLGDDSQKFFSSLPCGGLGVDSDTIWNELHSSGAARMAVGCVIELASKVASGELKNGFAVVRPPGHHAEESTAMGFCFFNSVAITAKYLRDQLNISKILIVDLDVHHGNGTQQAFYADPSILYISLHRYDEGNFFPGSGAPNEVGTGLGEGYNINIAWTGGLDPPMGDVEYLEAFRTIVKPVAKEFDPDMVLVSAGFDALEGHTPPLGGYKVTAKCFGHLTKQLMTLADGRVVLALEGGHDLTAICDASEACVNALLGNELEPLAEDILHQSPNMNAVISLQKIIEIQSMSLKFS

[15] = test system: HCT-116; experiment: Antitumor activity against human HCT116 cells xenografted in athymic mouse assessed as tumor growth inhibition at 70 mg/kg, ip qd for 21 days measured on day 22; format: functional; conditions: HCT-116, ip, route intraperitoneal, read-out: TGI
[16] = test system: HCT-116; experiment: Antitumor activity against human HCT116 cells xenografted in athymic mouse assessed as tumor growth inhibition at 130 mg/kg, ip qd for 21 days measured on day 22; format: functional; conditions: HCT-116, ip, route intraperitoneal, read-out: TGI
[17] = test system: Mus musculus; experiment: Toxicity in athymic xenografted with human HCT116 cells mouse assessed as maximum body weight loss at 200 mg/kg, po qd for 21 days measured on day 7; format: organism-based, HCT-116; parameters: dose 200 mg/kg, route oral; conditions: in vivo, 504 h
[18] = test system: HCT-116; experiment: Antitumor activity against human HCT116 cells xenografted in athymic mouse assessed as tumor growth inhibition at 100 mg/kg, po qd for 21 days measured on day 21; format: functional; conditions: HCT-116, 504 h, read-out: TGI
[19] = test system: Mus musculus; experiment: Toxicity in athymic mouse xenografted with human HCT116 cells assessed as maximum body weight loss at 100 mg/kg, po qd for 21 days; format: organism-based, HCT-116; parameters: dose 100 mg/kg, route oral; conditions: in vivo, 504 h
[20] = molecular target: T3, Histone deacetylase 8 (Homo sapiens, UniProt Q9BY41); experiment: Inhibition of recombinant HDAC8 by fluorimetric assay
T3 sequence (Q9BY41 whole entry): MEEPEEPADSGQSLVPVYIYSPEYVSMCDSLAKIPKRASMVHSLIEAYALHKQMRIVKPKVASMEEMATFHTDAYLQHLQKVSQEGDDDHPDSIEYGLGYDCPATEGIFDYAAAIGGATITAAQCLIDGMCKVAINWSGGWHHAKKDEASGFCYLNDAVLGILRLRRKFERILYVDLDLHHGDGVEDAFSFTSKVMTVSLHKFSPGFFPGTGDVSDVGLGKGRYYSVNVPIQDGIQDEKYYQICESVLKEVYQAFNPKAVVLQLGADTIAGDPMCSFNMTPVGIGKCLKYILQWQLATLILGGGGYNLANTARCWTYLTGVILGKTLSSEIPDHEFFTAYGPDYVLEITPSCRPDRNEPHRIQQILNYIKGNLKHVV

[21] = test system: Mus musculus; experiment: Toxicity in athymic mouse xenografted with human HCT116 cells assessed as maximum body weight loss at 130 mg/kg, ip qd for 21 measured on day 19; format: organism-based, HCT-116; parameters: dose 130 mg/kg, route intraperitoneal; conditions: in vivo

## Cl.O=C(/C=C/c1ccc2c(c1)nc(CCc1ccccc1)n2CCN1CCCC1)NO
[1]
  solubility: 1600 µg/mL
[2]
  logD: 2.1

## O=C(/C=C/c1ccc2c(c1)nc(CCc1ccccc1)n2CCN1CCCC1)NO
[3]
  inhibition in vivo at 200 mg/kg: 78%
[4]
  Ki: 12.8 nM
[5]
  IC50: 140 nM
[6]
  Ki: 17.2 nM
[7]
  Ki: 12.5 nM
[8]
  MTD: 130 mg/kg
[9]
  Cmax: 920 nM
[10]
  bioavailability: 13%
[11]
  Ki: 20.6 nM
[12]
  Activity: 0.5%
[13]
  Ki: 9.6 nM
[14]
  Ki: 19.2 nM
[15]
  inhibition in vivo at 70 mg/kg: 59%
[16]
  inhibition in vivo at 130 mg/kg: 89%
[17]
  Activity: 5.7%
[18]
  inhibition in vivo at 100 mg/kg: 43%
[19]
  Activity: Non-toxic
[20]
  Ki: 82 nM
[21]
  Activity: 8.7%
